Patent US12264352B2, “Method for enhancing extracellular vesicle production” (Research Foundation of the City University of New York, priority 2016, dated 2025)
Non-standard residues stand in square brackets, D forms with d. Residues, ends and D or L forms follow the SMILES beside them. *: point of attachment. Acetyl(2-naphthyl) = O=C(Cc1ccc2ccccc2c1)*; pY = N[C@@H](Cc1ccc(OP(=O)(O)O)cc1)C(=O)O; NBD = O=[N+]([O-])c1ccc(*)c2nonc12

Key:
[1] = test system: MB231, HT1080, MB231-4175; assay: Cell tests (toxicity/viability) for various cell types at 0-200 μM peptide after 60 min of incubation; assay type: cell-based; conditions: in general, toxicity depends on cell type; 60 min incubation; FIG. 5A
Protocol: As shown in FIG. 5A toxicity depends on the cell type, however in general cells are viable under 100 μM of peptide incubation (NapFFK(NBD)Yp). […] Thus, EV generation can be amplified as low as 5 μM of peptide incubation and shorter times to be effective.

[2] = test system: MDA-MB231 breast cancer cells; assay: Cell death of the cells used for EV production at high peptide concentration; assay type: cell-based; conditions: the particular cells used for EV production
Description: The NTA can also determine the average diameter of released EVs. While the increase of polymer concentration in parental cells increases the number of released EVs, the size of EVs is constant regardless of the polypeptide concentration in parental cells (FIG. 3B, FIG. 3C, FIG. 3D, FIG. 3E). The increased number of released EVs can also be confirmed by the increase of fluorescence intensity of collected EVs (FIG. 3F), measured by fluorescence spectrometer. […] In one embodiment, production is enhanced by at least 50% relative to the control. […] The particular cells used experienced cell death at concentrations above 500 μM of NapFFKYp-NBD. Alternative upper limits may be possible for other cell line and other polypeptide precursors.

## O=C(Cc1ccc2ccccc2c1)N[C@@H](Cc1ccccc1)C(=O)N[C@@H](Cc1ccccc1)C(=O)N[C@@H](CCCCNc1ccc([N+](=O)[O-])c2nonc12)C(=O)N[C@@H](Cc1ccc(OP(=O)(O)O)cc1)C(=O)O [NapFFK(NBD)Yp] ({Acetyl(2-naphthyl)}-FFK(NBD)[pY]-OH)
[1]
  peptide concentration under which cells are viable: under 100 μM
[2]
  concentration above which cells experienced cell death: above 500 μM
